Results reported in patent US12351571B2, “Substituted quinoxaline compounds as inhibitors of FGFR tyrosine kinases” (ARRAY BIOPHARMA INC., priority 2018, dated 2025).

How the values were obtained:
dephosphorylated FGFR2 = dephosphorylated FGFR2 (Homo sapiens (Human), UniProt P21802); assay: FGFR Enzyme Binding Assay (HTRF tracer displacement), FGFR2; settings: 5 nM dephosphorylated FGFR2, 60 minute incubation at 22° C.; read-out: FGFR2 Enz Binding IC50
Procedure: The potency of compounds inhibiting human isoforms of FGFR kinase was determined using Life Technologies' Homogeneous Time Resolved Fluorescence (HTRF)-based binding assay technology. An incubation was conducted with either 5 nM dephosphorylated FGFR1 (Array Biopharma, p1702; SEQ ID NO: 1, amino acids 458 to 765, dephosphorylated by co-expression with PTP1b (protein tyrosine phosphatase 1B)), 5 nM dephosphorylated FGFR2 (Life Technologies, Cat. No. PV4106 that had been dephosphorylated with Lambda protein phosphatase (New England Biolabs, cat #P0753)) or 5 nM phosphorylated FGFR3 (Array Biopharma, p1836; SEQ ID NO: 5, amino acids 449 to 759), 50 nM Kinase Tracer 236 (Life Technologies Cat. No. PR9078A), 2 nM Biotin-anti-6HIS (Life Technologies Cat. No. PV6090) and 2 nM Europium-Streptavidin (Life Technologies Cat. No. PV6025) along with test compound in a buffer consisting of 50 mM HEPES ((4-(2-hydroxyethyl)-1-piperazineethanesulfonic acid, pH 7.5), 5 mM MgCl2, 0.005% Triton X-100, 1 mM DTT, 1 mM NaVO4 and 2% DMSO in a final volume of 12 μL Compounds were typically prepared as a 3-fold or 4-fold serial dilution in DMSO and added to the assay to give the appropriate final concentration. After a 60 minute incubation at 22° C., the extent of tracer displacement was determined using a PerkinElmer EnVision multimode plate reader via HTRF dual wavelength detection, and the percent of control (POC) was calculated using a ratiometric emission factor. One hundred POC was determined using no test compound, and 0 POC was determined in the presence of 1 μM of an appropriate control inhibitor. A 4-parameter logistic curve was fit to the POC values as a function of the concentration of compound, and the IC50 value was the point where the best-fit curve crossed 50 POC.

human wild type FGFR2 = human wild type FGFR2 (Homo sapiens (Human), UniProt P21802); assay: FGFR2 pFGFR Cell Assay; type: cell-based; settings: HEK-293 cells, 1 hour compound, 30 ng/ml human FGF-acidic, ELISA
Procedure: (§1) HEK-293 cells transfected with dox-inducible human wild type FGFR2 (SEQ ID NO: 3) were plated in a collagen or poly-D-lysine coated 96 well flat bottom plates at 4×10^5 cells/well in complete DMEM medium containing 10% FBS and 1 μg/ml doxycycline and allowed to attach for 24 h at 37° C., 5% CO2. Cells were treated with compound using 1:3 serial dilutions with a maximum final concentration of 5 μM. Compound was incubated on cells for 1 hour at 37° C., 5% CO2. Cells were then stimulated with a final concentration of 30 ng/ml human FGF-acidic (R&D Systems Cat number 232-FA/CF) for 5 minutes at 37° C., 5% CO2. Medium was removed and cells were lysed with lysis buffer containing phosphatase and protease inhibitors. Phospho FGFR2 was measured by ELISA (R&D Systems cat. no. DYC684). The ELISA captures total FGFR2 and detects total phospho tyrosine. Optical density was measured for each well using a Versamax reader at a wavelength of 450 nm. 100 POC was determined using no test compounds and 0 POC was determined using a control compound. The POC values were fit to a 4-parameter logistic curve as a function of the concentration of the compound, and the IC50 value is the point where the curve crosses 50 POC.

human wild type FGFR3 = human wild type FGFR3 (Homo sapiens (Human), UniProt P22607); assay: FGFR3 pFGFR Cell Assay; type: cell-based; settings: HEK-293 cells, 1 hour compound, 100 ng/ml human FGF-acidic, ELISA
Procedure: as §1, with “FGFR3” for “FGFR2”, “5)” for “3)”, “top” for “maximum”, “100” for “30”, “FGF-acidic” for “FGF-acidic (R&D Systems Cat number 232-FA/CF)”, “cat DYC2719).” for “cat. no. DYC684).”

Sequence of dephosphorylated FGFR2 (P21802 22-821): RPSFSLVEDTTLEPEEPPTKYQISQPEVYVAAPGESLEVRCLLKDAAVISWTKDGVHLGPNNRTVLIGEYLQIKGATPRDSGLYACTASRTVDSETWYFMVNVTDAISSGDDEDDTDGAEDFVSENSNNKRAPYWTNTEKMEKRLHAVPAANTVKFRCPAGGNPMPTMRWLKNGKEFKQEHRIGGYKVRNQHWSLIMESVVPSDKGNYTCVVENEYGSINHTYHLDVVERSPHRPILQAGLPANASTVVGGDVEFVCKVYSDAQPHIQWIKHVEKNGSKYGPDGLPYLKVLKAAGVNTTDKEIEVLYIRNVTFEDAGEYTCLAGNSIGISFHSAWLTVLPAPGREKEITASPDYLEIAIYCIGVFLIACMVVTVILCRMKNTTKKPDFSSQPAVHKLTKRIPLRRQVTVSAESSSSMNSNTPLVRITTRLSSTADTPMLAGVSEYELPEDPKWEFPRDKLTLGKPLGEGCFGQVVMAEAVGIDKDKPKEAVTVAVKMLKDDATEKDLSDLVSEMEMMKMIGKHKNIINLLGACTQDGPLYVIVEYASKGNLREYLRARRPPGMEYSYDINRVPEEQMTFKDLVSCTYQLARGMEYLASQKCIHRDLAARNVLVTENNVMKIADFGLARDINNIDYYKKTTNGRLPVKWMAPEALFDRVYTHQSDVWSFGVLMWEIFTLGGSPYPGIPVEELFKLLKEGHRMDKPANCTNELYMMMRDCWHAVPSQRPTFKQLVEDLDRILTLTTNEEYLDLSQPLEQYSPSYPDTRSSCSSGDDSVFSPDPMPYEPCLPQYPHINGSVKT
Sequence of human wild type FGFR2 (P21802 22-821): as above
Sequence of human wild type FGFR3 (P22607 23-806): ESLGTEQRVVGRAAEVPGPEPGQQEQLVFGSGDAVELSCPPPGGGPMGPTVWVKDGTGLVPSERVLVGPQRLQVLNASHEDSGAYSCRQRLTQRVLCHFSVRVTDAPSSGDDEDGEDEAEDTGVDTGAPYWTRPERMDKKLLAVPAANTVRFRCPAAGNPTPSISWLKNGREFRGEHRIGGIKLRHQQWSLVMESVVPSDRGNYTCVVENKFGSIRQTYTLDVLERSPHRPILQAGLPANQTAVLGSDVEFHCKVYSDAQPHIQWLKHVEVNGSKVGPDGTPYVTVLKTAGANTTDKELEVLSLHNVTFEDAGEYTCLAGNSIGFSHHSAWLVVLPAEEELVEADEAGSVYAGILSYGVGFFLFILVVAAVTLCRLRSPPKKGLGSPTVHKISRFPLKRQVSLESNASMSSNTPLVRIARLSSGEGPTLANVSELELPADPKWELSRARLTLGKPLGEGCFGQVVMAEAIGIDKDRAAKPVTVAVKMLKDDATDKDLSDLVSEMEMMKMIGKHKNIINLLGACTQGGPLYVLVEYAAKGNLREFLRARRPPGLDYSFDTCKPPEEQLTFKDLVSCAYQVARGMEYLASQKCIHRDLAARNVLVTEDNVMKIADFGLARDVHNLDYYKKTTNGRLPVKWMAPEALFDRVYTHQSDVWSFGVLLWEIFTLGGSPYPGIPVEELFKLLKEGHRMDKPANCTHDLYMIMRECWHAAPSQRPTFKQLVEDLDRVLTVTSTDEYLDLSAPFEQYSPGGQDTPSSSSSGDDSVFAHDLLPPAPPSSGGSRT

Structure (SMILES) | IC50 (dephosphorylated FGFR2) | IC50 (human wild type FGFR2) | IC50 (human wild type FGFR3)
COc1cc(Nc2ccc3ncc(-c4c(C)nn(C5CCN(C(=O)C6(F)CN(C(=O)/C=C/CN(C)C)C6)CC5)c4C)nc3c2)cc(OC)c1 [Example 23, (E)-1-(3-(4-(4-(7-((3,5-dimethoxyphenyl)amino)-quinoxalin-2-yl)-3,5-dimethyl-1H-pyrazol-1-yl)piperidine-1-carbonyl)-3-fluoroazetidin-1-yl)-4-(dimethylamino)but-2-en-1-one] | 0.038 µM | – | –
COc1cc(Nc2ccc3ncc(-c4ccc(N5CCN(C(=O)C6(F)CN(C(=O)/C=C/CN(C)C)C6)CC5)nc4)nc3c2)cc(OC)c1 [Example 7, (E)-1-(3-(4-(5-(7-((3,5-dimethoxyphenyl)amino)-quinoxalin-2-yl)pyridin-2-yl)piperazine-1-carbonyl)-3-fluoroazetidin-1-yl)-4-(dimethylamino)but-2-en-1-one] | 0.018 µM | 0.182 µM | –
C=CC(=O)N1CC(C(=O)N2CCN(c3cccc(-c4cnc5ccc(Nc6cc(OC)cc(OC)c6)cc5n4)c3)CC2)C1 [Example 25, 1-(3-(4-(3-(7-((3,5-dimethoxyphenyl)amino)-quinoxalin-2-yl)phenyl)-piperazine-1-carbonyl)-azetidin-1-yl)prop-2-en-1-one] | 0.157 µM | – | –
C=CC(=O)N1CC(C(=O)N2CCN(c3ccc(-c4cnc5ccc(Nc6cc(OC)cc(OC)c6)cc5n4)cn3)CC2)C1 [Example 5, 1-(3-(4-(5-(7-((3,5-dimethoxyphenyl)amino)-quinoxalin-2-yl)pyridin-2-yl)piperazine-1-carbonyl)azetidin-1-yl)-prop-2-en-1-one] | – | 0.486 µM | –
COc1cc(Nc2ccc3ncc(-c4cn(C5CCN(C(=O)C6(F)CN(C(=O)/C=C/CN(C)C)C6)CC5)nc4C)nc3c2)cc(OC)c1 [Example 22, (E)-1-(3-(4-(4-(7-((3,5-dimethoxyphenyl)amino)-quinoxalin-2-yl)-3-methyl-1H-pyrazol-1-yl)-piperidine-1-carbonyl)-3-fluoroazetidin-1-yl)-4-(dimethylamino)but-2-en-1-one] | 0.019 µM | 0.301 µM | –
COc1cc(Nc2ccc3ncc(-c4cnc(N5CCN(C(=O)C6(F)CN(C(=O)/C=C/CN(C)C)C6)CC5)cc4C)nc3c2)cc(OC)c1 [Example 14, (E)-1-(3-(4-(5-(7-((3,5-dimethoxyphenyl)amino)-quinoxalin-2-yl)-4-methylpyridin-2-yl)-piperazine-1-carbonyl)-3-fluoroazetidin-1-yl)-4-(dimethylamino)but-2-en-1-one] | 0.29 µM | – | –
COc1cc(Nc2ccc3ncc(-c4cnn(C5CCN(C(=O)C6(F)CN(C(=O)/C=C/CN(C)C)C6)CC5)c4C)nc3c2)cc(OC)c1 [Example 17, (E)-1-(3-(4-(4-(7-((3,5-dimethoxyphenyl)amino)-quinoxalin-2-yl)-5-methyl-1H-pyrazol-1-yl)piperi-dine-1-carbonyl)-3-fluoroazetidin-1-yl)-4-(dimethylamino)but-2-en-1-one] | – | 0.17 µM | –
COc1cc(Nc2ccc3ncc(-c4ccc(N5CCN(C(=O)C6CN(C(=O)/C=C/CN(C)C)C6)CC5)nc4)nc3c2)cc(OC)c1 [Example 6, (E)-1-(3-(4-(5-(7-((3,5-dimethoxyphenyl)amino)-quinoxalin-2-yl)pyridin-2-yl)piperazine-1-carbonyl)azetidin-1-yl)-4-(dimethylamino)but-2-en-1-one] | 0.014 µM | – | –

Second part, the molecule after the results:

IC50 (dephosphorylated FGFR2) | IC50 (human wild type FGFR2) | IC50 (human wild type FGFR3) | Structure (SMILES)
0.005 µM | 0.062 µM | – | C=CC(=O)N1CC(CN2CCC(n3cc(-c4cnc5ccc(Nc6cc(OC)cc(OC)c6)cc5n4)cn3)CC2)C1 [Example 30, 1-(3-((4-(4-(7-((3,5-dimethoxyphenyl)amino)quinoxalin-2-yl)-1H-pyrazol-1-yl)piperidin-1-yl)methyl)azetidin-1-yl)prop-2-en-1-one]
0.003 µM | 0.037 µM | – | C=CC(=O)N1CC(O)(C(=O)N2CCC(n3cc(-c4cnc5ccc(N(C)c6cc(OC)cc(OC)c6)cc5n4)cn3)CC2)C1 [Example 27, 1-(3-(4-(4-(7-((3,5-dimethoxyphenyl)(methyl)amino)quinoxalin-2-yl)-1H-pyrazol-1-yl)piperidine-1-carbonyl)-3-hydroxyazetidin-1-yl)prop-2-en-1-one]
0.003 µM | 0.006 µM | – | C#CCN(c1cc(OC)cc(OC)c1)c1ccc2ncc(-c3cnn(C4CCN(C(=O)C5(F)CN(C(=O)/C=C/CN(C)C)C5)CC4)c3)nc2c1 [Example 28, (E)-1-(3-(4-(4-(7-((3,5-dimethoxyphenyl)(prop-2-yn-1-yl)amino)quinoxalin-2-yl)-1H-pyrazol-1-yl)piperidine-1-carbonyl)-3-fluoroazetidin-1-yl)-4-(dimethylamino)but-2-en-1-one]
0.005 µM | – | – | C=CC(=O)N1CC(O)(C(=O)N2CCC(n3cc(-c4cnc5ccc(Nc6cc(OC)cc(OC)c6)cc5n4)cn3)CC2)C1 [Example 26, 1-(3-(4-(4-(7-((3,5-dimethoxyphenyl)amino)quinoxalin-2-yl)-1H-pyrazol-1-yl)piperidine-1-carbonyl)-3-hydroxyazetidin-1-yl)prop-2-en-1-one]
0.006 µM | 0.117 µM | 0.121 µM | C=CC(=O)N1CC[C@@H](C(=O)N2CCC(n3cc(-c4cnc5ccc(Nc6cc(OC)cc(OC)c6)cc5n4)cn3)CC2)C1 [Example 2, (R)-1-(3-(4-(4-(7-((3,5-dimethoxyphenyl)amino)-quinoxalin-2-yl)-1H-pyrazol-1-yl)piperidine-1-carbonyl)pyrrolidin-1-yl)-prop-2-en-1-one]
0.005 µM | 0.056 µM | – | C=CC(=O)N1CC(CN2CCC(n3cc(-c4cnc5ccc(Nc6cc(OC)cc(OC)c6)cc5n4)cn3)CC2)(OC)C1 [Example 29, 1-(3-((4-(4-(7-((3,5-dimethoxyphenyl)amino)quinoxalin-2-yl)-1H-pyrazol-1-yl)piperidin-1-yl)methyl)-3-methoxyazetidin-1-yl)prop-2-en-1-one]
0.006 µM | 0.028 µM | – | COc1cc(Nc2ccc3ncc(-c4cnn(C5CCN(C(=O)C6(F)CN(C(=O)/C=C/CN(C)C)C6)CC5)c4)nc3c2)cc(OC)c1 [Example 10, (E)-1-(3-(4-(4-(7-((3,5-dimethoxyphenyl)amino)-quinoxalin-2-yl)-1H-pyrazol-1-yl)piperidine-1-carbonyl)-3-fluoro-azetidin-1-yl)-4-(dimethylamino)but-2-en-1-one]
0.004 µM | – | 0.017 µM | C=CC(=O)N1CC(F)(C(=O)N2CCC(n3cc(-c4cnc5ccc(Nc6cc(OC)cc(OC)c6)cc5n4)cn3)CC2)C1 [Example 4, 1-(3-(4-(4-(7-((3,5-dimethoxyphenyl)amino)-quinoxalin-2-yl)-1H-pyrazol-1-yl)piperidine-1-carbonyl)-3-fluoro-azetidin-1-yl)prop-2-en-1-one]
0.008 µM | 0.049 µM | – | C=CC(=O)N1CC(OC)(C(=O)N2CCC(n3cc(-c4cnc5ccc(Nc6cc(OC)cc(OC)c6)cc5n4)cn3)CC2)C1 [Example 24, 1-(3-(4-(4-(7-((3,5-dimethoxyphenyl)amino)-quinoxalin-2-yl)-1H-pyrazol-1-yl)piperidine-1-carbonyl)-3-methoxy-azetidin-1-yl)prop-2-en-1-one]
